Experimental data: publication PMC6422423, “Constitutively active BRS3 is a genuinely orphan GPCR in placental mammals” (PLoS Biology, 2019)
Entries after “also recorded” stand apart in the source; their conditions may differ. *1 amine or outer side, *2 acyl side, *3 side chain or, on linkers, in order; H or OH if unused. Where a SMILES comes first, the peptide text is derived from it. Bridges are numbered along the chain shown (N, C = ends). [ ]: non-standard residue; d: D form. X1 = CC(=O)NC(C(=O)OC(C(C)C)C(N[*:1])C(=O)[*:2])C(O)C(C)C; PhLac = O=C(O)[CH](O)Cc1ccccc1; NMeT = CN[CH](C(=O)O)[CH](C)O; NMeA = CN[CH](C)C(=O)O; NMeDha = C=C(NC)C(=O)O

Key:
[1] = tested on: BRS3 receptors in nonplacental vertebrates; assay: ERK1/2 phosphorylation, nonplacental pooled; format: cell-based, koala, platypus, chicken, turtle, frog, and spotted gar; settings: cBRS3, tBRS3, sBRS3; inhibitor 25 μM 1 h, then GRP or NMB 1 μM 5 min; HEK293
Description: For ERK1/2 phosphorylation, HEK293 cells were seeded in 24-well plates and transfected with GRPR, NMBR, BRS3, mutants of different species’ BRS3, or an empty vector plasmid, pcDNA3.1-V5-His plasmid (300 ng). […] Each sample with an equal amount of protein was mixed with 6×SDS sample buffer, boiled for 5 min, and separated on 10% SDS-polyacrylamide gel electrophoresis (PAGE) before transferring the proteins onto a PVDF membrane. The membranes were then blocked at room temperature for 1 h with 5% milk powder in Tris-buffered saline-Tween (TBST), followed by subsequent incubation at 4°C overnight in TBST containing the different primary antibodies (1:1,000 dilution). After washing three times (10 min each time) with TBST, the membranes were incubated for 1 h in TBST containing the secondary antibodies (1:2,000 dilution), followed by washing three times (10 min each time) with TBST, prior to detection by chemiluminescence.

[2] = tested on: BRS3 receptors in nonplacental vertebrates; assay: Intracellular calcium assay, nonplacental pooled; format: cell-based, koala, platypus, chicken, turtle, frog, and spotted gar; settings: cBRS3, tBRS3, sBRS3; inhibitor 25 μM 1 h, then GRP or NMB 10 nM; HEK293
Description: Intracellular calcium was measured using the non-wash calcium assay Fluo8 kit (ab112129, Abcam) according to the manufacturer’s instructions. Briefly, HEK293 cells were seeded in 24-well plates and were transfected with GRPR, NMBR, BRS3, or the empty vector plasmid pcDNA3.1-V5-His (300 ng) and incubated overnight at 37°C with 5% CO2. The next day, the cells were replated into a 96-well assay plate (black plate and clear bottom). After 12 h, growth media were aspirated, and calcium dye was added. […] The basal fluorescence intensity was recorded 15 times at 1 Hz for […]. The results were normalized to the average basal fluorescence intensity in ratio, and the peak response was used for the result calculation. Calcium fold was calculated using no stimulation data as standard value.

[3] = tested on: BRS3 of placental mammals (hBRS3, mBRS3, and aBRS3); assay: Luciferase reporter, constitutive Gq activity with inhibitor, pooled; format: cell-based, human, mouse, aardvark; settings: inhibitor 25 μM, 12 h, HEK293
Description: (§1) To detect constitutive activity of BRS3, HEK293 cells were seeded in 24-well plates and cotransfected with the CRE/NFAT-RE/SRF-RE/SRE luciferase reporter plasmids (50 ng), the BRS3 from different species, or BRS3 mutants with different doses (10 ng/50 ng/150 ng); after 24 h, cells were further incubated in serum-free media for another 12 h before luciferase assay. As for peptide supplementation treatment, HEK293 cells were cotransfected with the CRE/NFAT-RE/SRF-RE/SRE luciferase reporter plasmids (50 ng) and various genes (300 ng) of the bombesin receptor family. […] Luciferase activities were determined using luciferase assay kits (Beyotime, Shanghai, China) and normalized to β-galactosidase activity. All experiments were performed at least three times in triplicates. HEK293 cells transfected with pcDNA were used as a blank control in all luciferase experiments, and the fold was calculated compared to blank control.

human BRS3 (hBRS3) = assay: Luciferase reporter, constitutive activity (WT, mutants, truncated; with/without inhibitor); format: cell-based; settings: 25 μM inhibitor 12 h, HEK293, vs blank
Description: as §1

mouse BRS3 (mBRS3) = assay: as above; format: cell-based; settings: 25 μM inhibitor 12 h, HEK293, vs blank
Description: as §1

aardvark BRS3 (aBRS3) = assay: as above; format: cell-based, Orycteropus afer; settings: 25 μM inhibitor 12 h, HEK293, vs blank
Description: as §1

[4] = tested on: N-aBRS3 (aardvark BRS3 with truncated N terminus); assay: Luciferase reporter, N-terminal peptide stimulated, truncated receptor; format: cell-based, Orycteropus afer; settings: 1,000 nM peptide 12 h, HEK293
Description: as §1

N-tBRS3 (turtle) = assay: as above; format: cell-based, Chrysemys picta; settings: 1,000 nM, 12 h, HEK293
Description: as §1

N-cBRS3 (chicken) = assay: as above; format: cell-based, Gallus gallus; settings: 1,000 nM, 12 h, HEK293
Description: as §1

[5] = tested on: pcDNA-transfected HEK293 cells; assay: Luciferase reporter, N-terminal peptide stimulated, empty vector; format: cell-based, human; settings: 1,000 nM peptide 12 h
Description: as §1

[6] = tested on: N-BRS3 receptors of placental mammals (N-hBRS3, N-mBRS3, and N-aBRS3); assay: Luciferase reporter, N-terminal peptide stimulated, pooled; format: cell-based, human, mouse, aardvark; settings: CRE/NFAT-RE/SRF-RE; 1,000 nM, 12 h, HEK293
Description: as §1

[7] = tested on: N-mBRS3 (mouse BRS3 with truncated N terminus); assay: Luciferase reporter, N-terminal peptide stimulated, truncated receptor; format: cell-based; settings: 1,000 nM peptide 12 h, HEK293
Description: as §1

[8] = tested on: N-hBRS3 (human BRS3 with truncated N terminus); assay: as above; format: cell-based; settings: 1,000 nM peptide 12 h, HEK293
Description: as §1

N-sBRS3 (spotted gar) = assay: as above; format: cell-based, Lepisosteus oculatus; settings: 1,000 nM, 12 h, HEK293
Description: as §1

GPR39 = settings: cited from earlier work
Description: Coevolution of GPCR–ligand pairs appears more pronounced in the polypeptide family, and there are approximately 30 orphan GPCRs from the polypeptide family, in which endogenous peptide ligands are predicted to bind to and activate these orphan GPCRs. Since GPCRs from the polypeptide family were considered to be paired with natural polypeptide ligands, many studies aim to identify endogenous peptides to deorphanize these orphan GPCRs in the polypeptide family. According to the evolution of GPCR-peptide pairs, after the 2R event during the origin of vertebrates, most orphan GP ...

CN1CCN(c2nc(C3=C(c4c[nH]c5ccccc45)C(=O)NC3=O)c3ccccc3n2)CC1 [Sotrastaurin]
Inhibition of ERK phosphorylation (in words) [1]: inhibits the phosphorylation levels of ERK
Inhibition of Ca2+ mobilization (in words) [2]: inhibits Ca^2+ ion levels
Inhibition of constitutive Gq signaling (in words) [3]: inhibits the constitutively activated Gq signaling pathway

C=C1C(=O)NC(C)C(=O)N(C)C(C)C(=O)NC(C(OC(=O)C(NC(C)=O)C(O)C(C)C)C(C)C)C(=O)N(C)C(C(C)OC)C(=O)OC(C)C(NC(C)=O)C(=O)OC(Cc2ccccc2)C(=O)N1C (stereo not drawn) [YM 254890] (Ac-T[PhLac][NMeDha]A[NMeA][X1][NMeT](Me); ester 1-C; configuration not given here)
Luciferase fold (constitutive Gq signaling) with inhibitor (human BRS3 (hBRS3); line 1): 0.7675 fold
Luciferase fold (constitutive Gq signaling) with inhibitor (human BRS3 (hBRS3); line 2): 0.8993 fold
Luciferase fold (constitutive Gq signaling) with inhibitor (human BRS3 (hBRS3); line 3): 0.8334 fold
Inhibition of ERK phosphorylation (in words) [1]: inhibits the phosphorylation levels of ERK; also recorded: inhibited
Inhibition of Ca2+ mobilization (in words) [2]: inhibits Ca^2+ ion levels; also recorded: inhibited
Luciferase fold (constitutive Gq signaling) with inhibitor (mouse BRS3 (mBRS3); line 1): 1.3903 fold
Luciferase fold (constitutive Gq signaling) with inhibitor (mouse BRS3 (mBRS3); line 2): 1.6189 fold
Luciferase fold (constitutive Gq signaling) with inhibitor (mouse BRS3 (mBRS3); line 3): 1.5046 fold
Inhibition of constitutive Gq signaling (in words) [3]: inhibits the constitutively activated Gq signaling pathway
Luciferase fold (constitutive Gq signaling) with inhibitor (aardvark BRS3 (aBRS3); line 1): 1.6524 fold
Luciferase fold (constitutive Gq signaling) with inhibitor (aardvark BRS3 (aBRS3); line 2): 1.8796 fold
Luciferase fold (constitutive Gq signaling) with inhibitor (aardvark BRS3 (aBRS3); line 3): 1.766 fold

MSQRQSQSPNQTLISITNDTETSSSVVSNDTTHKGWTGDNS-NH2 [N-terminal peptide of mBRS3, synthetic N terminus peptide of mouse BRS3]
CRE luciferase fold ([4]; line 1): 1.4026 fold
NFAT luciferase fold ([4]; line 1): 2.2791 fold
SRF luciferase fold ([4]; line 1): 1.3458 fold
CRE luciferase fold ([4]; line 2): 1.3089 fold
NFAT luciferase fold ([4]; line 2): 1.9413 fold
SRF luciferase fold ([4]; line 2): 1.2427 fold
CRE luciferase fold ([4]; line 3): 1.3558 fold
NFAT luciferase fold ([4]; line 3): 2.1102 fold
SRF luciferase fold ([4]; line 3): 1.2942 fold
Activation of truncated receptor (in words) (N-tBRS3 (turtle)): cannot be stimulated
Activation of truncated receptor (in words) (N-cBRS3 (chicken)): cannot be stimulated
CRE luciferase fold ([5]; line 1): 0.9705 fold
NFAT luciferase fold ([5]; line 1): 0.9071 fold
SRF luciferase fold ([5]; line 1): 0.9788 fold
CRE luciferase fold ([5]; line 2): 1.0972 fold
NFAT luciferase fold ([5]; line 2): 1.1044 fold
SRF luciferase fold ([5]; line 2): 1.0087 fold
CRE luciferase fold ([5]; line 3): 1.0338 fold
NFAT luciferase fold ([5]; line 3): 1.0057 fold
SRF luciferase fold ([5]; line 3): 0.9937 fold
Activation of truncated receptors (in words) [6]: all CRE/NFAT-RE/SRF-RE signaling pathways could be activated
CRE luciferase fold ([7]; line 1): 1.2458 fold
NFAT luciferase fold ([7]; line 1): 2.0847 fold
SRF luciferase fold ([7]; line 1): 1.4898 fold
CRE luciferase fold ([7]; line 2): 1.0945 fold
NFAT luciferase fold ([7]; line 2): 1.8235 fold
SRF luciferase fold ([7]; line 2): 1.6079 fold
CRE luciferase fold ([7]; line 3): 1.1702 fold
NFAT luciferase fold ([7]; line 3): 1.9541 fold
SRF luciferase fold ([7]; line 3): 1.5488 fold
CRE luciferase fold ([8]; line 1): 1.2968 fold
NFAT luciferase fold ([8]; line 1): 1.5912 fold
SRF luciferase fold ([8]; line 1): 1.6244 fold
CRE luciferase fold ([8]; line 2): 1.4057 fold
NFAT luciferase fold ([8]; line 2): 1.6741 fold
SRF luciferase fold ([8]; line 2): 1.7709 fold
CRE luciferase fold ([8]; line 3): 1.3512 fold
NFAT luciferase fold ([8]; line 3): 1.6327 fold
SRF luciferase fold ([8]; line 3): 1.6976 fold
Activation of truncated receptor (in words) (N-sBRS3 (spotted gar)): cannot be stimulated

obestatin
Activation of GPR39 (in words) (GPR39): activated
Activation of GPR39, contrary view (in words) (GPR39): cannot be activated
